For assay [1], the system named is T1, MsCCR1.
T1 construct: gene CCR1; His-tagged, pET-28a, E. coli BL21, Ni-NTA; tag removal not mentioned
Kind of assay: NADPH oxidation, decrease of A366. It counts as biochemical, Medicago sativa. The conditions noted are these: NADPH 160 μM, 1x PBS, substrate 30-150 μM. The text has this: NADPH oxidation, decrease of A366 on MsCCR1

The test system of assay [2] is T2, MsCCR-like1.
T2 construct: His-tagged, pET-28a, E. coli BL21, Ni-NTA; tag removal not mentioned
Kind of assay: NADPH oxidation, decrease of A366. In kind it is biochemical, Medicago sativa. To be noted: NADPH 160 μM, 1x PBS, substrate 30-150 μM. From the text:
NADPH oxidation, decrease of A366 on MsCCR-like1

Where [3] appears, read: read-out: p-Coumaroyl-CoA / K m.

Like-named read-outs stand apart in the source and are kept apart here.

For `COc1cc(/C=C/C(=O)SCCNC(=O)CCNC(=O)[C@H](O)C(C)(C)COP(=O)(O)OP(=O)(O)OC[C@H]2O[C@@H](n3cnc4c(N)ncnc43)[C@H](O)[C@@H]2OP(=O)(O)O)cc(OC)c1O` [Sinapoyl-CoA], in assay [1] (read-out: Sinapoyl-CoA / K m), the Km came to 10.6 ± 1.25 µM. `CC(C)(COP(=O)(O)OP(=O)(O)OC[C@H]1O[C@@H](n2cnc3c(N)ncnc32)[C@H](O)[C@@H]1OP(=O)(O)O)[C@@H](O)C(=O)NCCC(=O)NCCSC(=O)/C=C/c1ccc(O)c(O)c1` [Caffeoyl-CoA]: the Km in assay [2] (read-out: Caffeoyl-CoA / K m) worked out at 48.2 ± 1.75 µM. On to `CC(C)(COP(=O)(O)OP(=O)(O)OC[C@H]1O[C@@H](n2cnc3c(N)ncnc32)[C@H](O)[C@@H]1OP(=O)(O)O)[C@@H](O)C(=O)NCCC(=O)NCCSC(=O)/C=C/c1ccc(O)cc1` [p-Coumaroyl-CoA], for which the Km in assay [1] (setting [3]) was found to be 24.2 ± 4.51 µM; in assay [2] (setting [3]), 44.1 ± 7.12 µM.

Turning to `COc1cc(/C=C/C(=O)SCCNC(=O)CCNC(=O)[C@H](O)C(C)(C)COP(=O)(O)OP(=O)(O)OC[C@H]2O[C@@H](n3cnc4c(N)ncnc43)[C@H](O)[C@@H]2OP(=O)(O)O)ccc1O` [Feruloyl-CoA], the Km in assay [1] (read-out: Feruloyl-CoA / K m) is 45.2 ± 11.4 µM.
